# Laboratory results: patent publication US20130231292A1, “Synergistic anti-proliferation activity of TAS-108 with mTOR inhibitors against cancer cells” (priority 2012, published 2013)
# “Also recorded” adds a separate entry of the source. Like-named read-outs stand apart in the source and are kept apart here.
# Assays:
# [1] = system: 60 cancer cell lines of different tissues of origin; assay: Non-bias 5x4 checkerboard combination screen of TAS108 with 30 chemotherapeutic agents; format: cell-based; parameters: ES: synergistic effect size: scale not given here; conditions: for ES: synergistic effect size: in combination with TAS-108, meta analysis across doses and 60 cell lines; for synergy with TAS-108 across the cell line panel (in words): in combination with TAS-108
# Source text: We used 5×4 factorial (checkerboard) design. The combinations were screened against 60 cancer cell lines of different tissues of origin, including melanoma, ovarian, CNS, renal, lung, breast, colon, prostate, and leukemia cancers, represented by cell lines including LOXIMVI, M14,MDAMB468, HT29, NCIH522, HS578T, RPMI8226, HOP92, HL60, OVCAR8, SR, SKMEL2, PC3, HOP62, HCC2998,786O, U251, OVCAR3, NCIH23, T47D, SF295, MOLT4, HCT15, SF539, BT549, SN12C, KM12, ADRRES, A498, NCIH226, NCIH322M, OVCAR5, MALME, OVCAR4, RXF393, SW620, CCRFCEM, UACC62, ACHN, SKOV3, SF268, EKVX, A549, NCIH460, IGROV1, SNB75, UACC257, UO31, HCT116, TK10, K562, SKMEL28, COLO205, SNB19, MDAMB231, DU145, CAKI1, MDAMB435, and MCF7.
# After quantifying the degree of synergy for specified doses of compounds within each individual cell line, we used meta analysis to aggregate those effects across doses and the cell line panel (Table 1).
# [2] = system: T47D; assay: CellTiter-Glo cell viability assay, single agents, three days; format: cell-based; conditions: Homo sapiens, 72 h; for Emax: read-out: Max Inhibition
# [3] = system: MDAMB231; assay: as above; format: cell-based; conditions: Homo sapiens, MDA-MB-231, 72 h; for Emax: read-out: Max Inhibition; for GI50: MDAMB231, three days, CellTiter-Glo
# [4] = system: BT549; assay: as above; format: cell-based; conditions: Homo sapiens, BT-549, 72 h; for Emax: read-out: Max Inhibition; for GI50: BT549, three days, CellTiter-Glo
# [5] = system: MDAMB468; assay: as above; format: cell-based; conditions: Homo sapiens, MDA-MB-468, 72 h; for Emax: read-out: Max Inhibition; for GI50: MDAMB468, three days, CellTiter-Glo
# [6] = system: HS578T; assay: as above; format: cell-based; conditions: Homo sapiens, Hs-578T, 72 h; for Emax: read-out: Max Inhibition
# [7] = system: MCF7; assay: as above; format: cell-based; conditions: Homo sapiens; for Emax: read-out: Max Inhibition
# [8] = system: HS 578T; assay: Combination screen of TAS-108 with a second compound, CellTiter-Glo; conditions: in combination with TAS-108
# Experimental: (§1) Cells were treated with compounds alone or in combination for three days and CellTiter-Glo® Luminescent Cell Viability Assay (Promega Corp.) was used as the endpoint to measure cell viability.
# (§2) Cells were cultured in RPMI with 10% fetal bovine serum and used between passage 2 and passage 20.
# (§3) Other compounds used were purchased from commercial sources (Sigma, AK Scientific). 40 mM Compound stocks in 100% DMSO were made. Master plates were made with Janus (PerkinElmer), then further diluted and added to the cell plates with Matrix Platemate (Thermo) on Day 0.
# (§4) CellTiter-Glo® Luminescent Cell Viability Assay (Promega Corp.) was used to measure ATP as an indicator of viable cells on Day 3 using Envision (PerkinElmer) and back up plate reader Analyst HT (MDS) and Gen5 (BioTek).
# (§5) Relative Luminescent Units (RLU) were plotted against corresponding drug concentrations and fitted with a standard four parameter sigmoidal curve with custom coded R program. Percentage growth inhibition is calculated as: [(Ti−Tz)/(C−Tz)]×100 for concentrations for which Ti≧Tz and [(Ti−Tz)/Tz]×100 for concentrations for which Ti<Tz.
# (§6) Twenty-five doses were tested for each pair of combinations.
# (§7) N: no synergistic effect; Y: synergistic effect; y: weak synergistic effect.
# [9] = system: human mammary carcinoma cell lines; assay: Combination screen of TAS-108 with a second compound, all six breast lines; conditions: number of the six breast cell lines with synergy, in combination with TAS-108
# Experimental: as §1, §2, §3, §4, §5, §6, §7
# [10] = compared to Tamoxifen; cited from earlier work
# [11] = system: breast carcinoma cells with aromatose inhibitor resistant characteristics; conditions: aromatase inhibitor resistant characteristics; cited from earlier work
# [12] = Phase II clinical trial; cited from earlier work
# [13] = system: Tamoxifen-sensitive and Tamoxifen-resistant breast carcinomas; conditions: in vitro and in vivo; cited from earlier work
# [14] = compared to Tamoxifen; cited from earlier work; remark: listed apart in the source
# [15] = three days, CellTiter-Glo, read-out: GI50
# [16] = HS578T, three days, CellTiter-Glo, read-out: GI50
# [17] = 72 h, MCF7, highest dose tested
# [18] = 72 h, MCF7, three days, CellTiter-Glo, read-out: GI50
structure (smiles),measurement,setting,value
CCCCCOC(=O)Nc1nc(=O)n([C@@H]2O[C@H](C)[C@@H](O)[C@H]2O)cc1F [Capecitabine],ES: synergistic effect size,[1],−0.001
N.N.O=C([O-])C1(C(=O)[O-])CCC1.[Pt+2] [Carboplatin],ES: synergistic effect size,[1],−0.004
Nc1ccn([C@@H]2O[C@H](CO)[C@@H](O)[C@@H]2O)c(=O)n1 [Cytarabine],ES: synergistic effect size,[1],−0.008
Cc1nc(Nc2ncc(C(=O)Nc3c(C)cccc3Cl)s2)cc(N2CCN(CCO)CC2)n1 [Dasatinib],Emax,[2]; highest dose tested,37%
same,GI50,[2]; [15],0.86 µM
same,Emax,"[3]; MDAMB231, highest dose tested",82%
same,GI50,[3],0.0099 µM
same,Emax,"[4]; BT549, highest dose tested",51%
same,GI50,[4],0.058 µM
same,Emax,"[5]; MDAMB468, highest dose tested",40%
same,GI50,[5],16 µM
same,Emax,"[6]; HS578T, highest dose tested",79%
same,GI50,[6]; [16],0.015 µM
CC(=O)O[C@@]12CO[C@@H]1C[C@H](O)[C@@]1(C)C(=O)[C@H](O)C3=C(C)[C@@H](OC(=O)[C@H](O)[C@@H](NC(=O)OC(C)(C)C)c4ccccc4)C[C@@](O)([C@@H](OC(=O)c4ccccc4)[C@H]21)C3(C)C [Docetaxel],synergy with TAS-108 across the cell line panel (in words),[1],synergy was consistently found; also recorded: significant synergy
same,ES: synergistic effect size,[1],0.23
C#Cc1cccc(Nc2ncnc3cc(OCCOC)c(OCCOC)cc23)c1 [Erlotinib],Emax,"[5]; MDAMB468, highest dose tested",34%
same,GI50,[5],76 µM
CO[C@H]1C[C@@H]2CC[C@@H](C)[C@@](O)(O2)C(=O)C(=O)N2CCCC[C@H]2C(=O)O[C@H]([C@H](C)C[C@@H]2CC[C@@H](OCCO)[C@H](OC)C2)CC(=O)[C@H](C)/C=C(\C)[C@@H](O)[C@@H](OC)C(=O)[C@H](C)C[C@H](C)/C=C/C=C/C=C/1C [Everolimus],Emax,[7]; [17],43%
same,GI50,[7]; [18],0.17 µM
same,Synergistic effect of TAS 108 paired with compound,[8],Y
same,Emax,[2]; highest dose tested,49%
same,GI50,[2]; [15],0.052 µM
same,Emax,"[3]; MDAMB231, highest dose tested",40%
same,GI50,[3],54 µM
same,Emax,"[4]; BT549, highest dose tested",100%
same,GI50,[4],5.8 µM
same,Emax,"[5]; MDAMB468, highest dose tested",100%
same,GI50,[5],0.063 µM
same,Synergy #,[9],6
same,synergy with TAS-108 across the cell line panel (in words),[1],synergy was consistently found; also recorded: significant synergy
same,ES: synergistic effect size,[1],0.037
same,Emax,"[6]; HS578T, highest dose tested",41%
same,GI50,[6]; [16],0.063 µM
C[C@]12CC[C@@H]3c4ccc(O)cc4C[C@@H](CCCCCCCCC[S+]([O-])CCCC(F)(F)C(F)(F)F)[C@H]3[C@@H]1CC[C@@H]2O (stereo partly shown) [Faslodex],Emax,[7]; [17],30%
same,GI50,[7]; [18],1 µM
same,Emax,[2]; highest dose tested,24%
O=c1[nH]c(=O)n([C@H]2C[C@H](O)[C@@H](CO)O2)cc1F [Floxuridine],ES: synergistic effect size,[1],−0.016
Nc1nc(F)nc2c1ncn2[C@@H]1O[C@H](CO)[C@@H](O)[C@@H]1O [FluroaraA],ES: synergistic effect size,[1],0.008
Nc1ccn([C@@H]2O[C@H](CO)[C@@H](O)C2(F)F)c(=O)n1 [Gemcitabine],ES: synergistic effect size,[1],−0.007
Cc1ccc(NC(=O)c2ccc(CN3CCN(C)CC3)cc2)cc1Nc1nccc(-c2cccnc2)n1 [Imatinib],Emax,"[3]; MDAMB231, highest dose tested",91%
same,GI50,[3],26 µM
same,GI50,[4],29 µM
CS(=O)(=O)CCNCc1ccc(-c2ccc3ncnc(Nc4ccc(OCc5cccc(F)c5)c(Cl)c4)c3c2)o1 [Lapatinib],Emax,[2]; highest dose tested,31%
same,GI50,[2]; [15],5.8 µM
same,Emax,"[3]; MDAMB231, highest dose tested",98%
same,GI50,[3],14 µM
same,Emax,"[5]; MDAMB468, highest dose tested",99%
same,GI50,[5],1.9 µM
Cc1cn(-c2cc(NC(=O)c3ccc(C)c(Nc4nccc(-c5cccnc5)n4)c3)cc(C(F)(F)F)c2)cn1 [Nilotinib],GI50,[3],14 µM
O=C(c1ccc(OCCN2CCCCC2)cc1)c1c(-c2ccc(O)cc2)sc2cc(O)ccc12 [Raloxifene],Emax,[7]; [17],27%
same,GI50,[7]; [18],25 µM
CO[C@H]1C[C@@H]2CC[C@@H](C)[C@@](O)(O2)C(=O)C(=O)N2CCCC[C@H]2C(=O)O[C@H]([C@H](C)C[C@@H]2CC[C@@H](O)[C@H](OC)C2)CC(=O)[C@H](C)/C=C(\C)[C@@H](O)[C@@H](OC)C(=O)[C@H](C)C[C@H](C)/C=C/C=C/C=C/1C [Rapamycin],Emax,[7]; [17],55%
same,GI50,[7]; [18],0.054 µM
same,Emax,[2]; highest dose tested,45%
same,GI50,[2]; [15],0.047 µM
same,Emax,"[3]; MDAMB231, highest dose tested",95%
same,GI50,[3],11 µM
same,Emax,"[4]; BT549, highest dose tested",99%
same,GI50,[4],0.22 µM
same,Emax,"[5]; MDAMB468, highest dose tested",100%
same,GI50,[5],0.063 µM
same,Emax,"[6]; HS578T, highest dose tested",41%
same,GI50,[6]; [16],1 µM
C/C=C1\NC(=O)[C@H]2CSSCC/C=C/[C@H](CC(=O)N[C@H](C(C)C)C(=O)N2)OC(=O)[C@H](C(C)C)NC1=O [Romidepsin],GI50,"[7]; MCF7, 72 h",0.00044 µM
same,Emax,"[7]; MCF7, 72 h",94%
same,GI50,[2],0.0011 µM
same,Emax,[2],96.7%
same,Emax,[3],99.9%
same,Emax,[4],99.8%
same,Emax,[5],99.8%
same,GI50,[6],0.0003 µM
same,Emax,[6],99.6%
CCc1c2c(nc3ccc(O)cc13)-c1cc3c(c(=O)n1C2)COC(=O)[C@]3(O)CC [SN38],ES: synergistic effect size,[1],0.022
CCN(CC)CCNC(=O)c1c(C)[nH]c(/C=C2\C(=O)Nc3ccc(F)cc32)c1C [Sunitinib],Emax,"[3]; MDAMB231, highest dose tested",99%
same,GI50,[3],5.6 µM
same,Emax,"[4]; BT549, highest dose tested",100%
same,GI50,[4],4.2 µM
same,GI50,[5],21 µM
same,Emax,"[6]; HS578T, highest dose tested",65%
same,GI50,[6]; [16],6.9 µM
"CCN(CC)Cc1ccc(OCC[C@H]2CC[C@H]3[C@@H]4[C@H](C)Cc5cc(O)ccc5[C@H]4CC[C@]23C)c(OC)c1 [TAS-108, (7α)-21-[4-[(Diethylamino)methyl]-2-methoxyphenoxy]-7-methyl-19-norpregna-1,3,5(10)-trien-3-ol 2-hydroxy-1,2,3-propanetricarboxylate]",Emax,[7]; [17],99%
same,GI50,[7]; [18],10 µM
same,Emax,[2]; highest dose tested,100%
same,GI50,[2]; [15],11 µM
same,uterotrophic activity,[10],significantly less uterotrophic activity compared to Tamoxifen
same,growth of breast carcinoma cells,[11],inhibits the growth
same,clinical benefit,[12],provided clinical benefits
same,tolerability,[12],well tolerated
same,Emax,"[3]; MDAMB231, highest dose tested",100%
same,GI50,[3],9.3 µM
same,Emax,"[4]; BT549, highest dose tested",100%
same,GI50,[4],13 µM
same,Emax,"[5]; MDAMB468, highest dose tested",100%
same,GI50,[5],1.8 µM
same,anti-tumor activity,[13],potent anti-tumor activity
same,bone density,[14],"protects against reductions in bone density, similar to Tamoxifen"
same,Emax,"[6]; HS578T, highest dose tested",100%
same,GI50,[6]; [16],8.2 µM
CC[C@]1(O)C[C@H]2CN(CCc3c([nH]c4ccccc34)[C@@](C(=O)OC)(c3cc4c(cc3OC)N(C=O)[C@H]3[C@@](O)(C(=O)OC)[C@H](OC(C)=O)[C@]5(CC)C=CCN6CC[C@]43[C@@H]65)C2)C1 [Vincristine],ES: synergistic effect size,[1],0.023
O=C(CCCCCCC(=O)Nc1ccccc1)NO [Vorinostat],ES: synergistic effect size,[1],0.004
